# What was measured:
# Conditions in all cases: Example 13 oxidoreductase panel (FIG. 7)
# [1] = molecular target: T1, HMG CoA reductase (HMGCoAR) (UniProt P04035); assay: HMGCoAR kinetic assay, spectrophotometric oxidation of NADPH at 340 nm; type: biochemical
# T1 sequence (P04035 1-888): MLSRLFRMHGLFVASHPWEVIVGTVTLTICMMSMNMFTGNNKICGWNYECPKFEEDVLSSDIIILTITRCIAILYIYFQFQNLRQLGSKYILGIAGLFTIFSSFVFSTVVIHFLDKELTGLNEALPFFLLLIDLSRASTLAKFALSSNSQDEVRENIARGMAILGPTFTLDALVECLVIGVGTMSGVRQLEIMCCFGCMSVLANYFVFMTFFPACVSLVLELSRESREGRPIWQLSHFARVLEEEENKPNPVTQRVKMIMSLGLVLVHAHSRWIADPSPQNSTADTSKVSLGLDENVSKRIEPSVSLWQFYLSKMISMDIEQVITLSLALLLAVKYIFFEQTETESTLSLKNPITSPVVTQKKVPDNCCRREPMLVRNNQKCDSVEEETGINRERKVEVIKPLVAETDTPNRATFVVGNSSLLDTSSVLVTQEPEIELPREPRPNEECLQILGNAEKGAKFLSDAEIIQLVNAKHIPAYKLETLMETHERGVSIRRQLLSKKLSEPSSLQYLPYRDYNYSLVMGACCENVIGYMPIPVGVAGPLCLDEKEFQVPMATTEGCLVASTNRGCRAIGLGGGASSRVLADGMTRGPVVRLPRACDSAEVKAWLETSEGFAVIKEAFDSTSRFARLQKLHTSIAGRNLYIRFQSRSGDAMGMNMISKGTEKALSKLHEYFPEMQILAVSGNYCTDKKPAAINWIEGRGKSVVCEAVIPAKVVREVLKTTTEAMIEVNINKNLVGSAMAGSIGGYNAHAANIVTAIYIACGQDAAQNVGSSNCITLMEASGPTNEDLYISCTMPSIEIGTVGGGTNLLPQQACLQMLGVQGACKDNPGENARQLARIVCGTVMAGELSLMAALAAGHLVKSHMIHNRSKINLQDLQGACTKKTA
# Description: For HMGCoAR analysis, the compounds were screened using a kinetic protocol that spectrophotometrically evaluates oxidation of NADPH.
# Stock solutions of each of the reagents were prepared in the following concentrations. Dilutions of the stock solutions were prepared prior to running the assay in the concentrations indicated below. The enzyme was diluted in 1 M NaCl. To prepare the dilution buffer, 10 μl of HMGCoAR (1 mg/ml) was mixed with 133 μl of 3 M NaCl solution and 257 μl of 25 mM KH2PO4 buffer (pH 7.5; containing 50 mM NaCl, […] EDTA (ethylenediaminetetraacetic acid), and 5 mM DTT (dithiothreitol).
# The HMGCoAR reaction was monitored at 340 nm prior to and after addition of the inhibitor to detect background reaction with the inhibitor. Solutions of 100 μM of the inhibitors in DMSO were prepared to provide a final DMSO concentration of 2% of the total assay volume. These solutions were incubated for 6 minutes at 25° C. in a 994 μl of a solution containing 25 mM KH2PO4, pH 7.5, 160 μM HMGCoA, 13 μM NADPH, 50 mM NaCl, 1 mM EDTA, and 5 mM DTT. The reaction was then initiated with 5 μl of HMGCoAR enzyme (1:40 dilution of 0.65 mg/ml). After the enzyme was added, the solution was mixed for 20 seconds, and the reaction was run for 10 minutes. After a 50 second lag, the samples were read in a Cary spectrophotometer at 340 nm. Reading of the samples was continued until 300 seconds. […]
# [2] = molecular target: Human Aldose Reductase (AR) (Homo sapiens, UniProt P15121); assay: AR kinetic assay, spectrophotometric measurement of enzyme activity at 340 nm; type: biochemical
# Description: For AR analysis, the compounds were screened using a kinetic protocol that spectrophotometrically measures enzyme activity.
# (§1) Stock solutions of each of the reagents were prepared in the following concentrations. Dilutions of the stock solutions were prepared prior to running the assay in the concentrations indicated below.
# The AR reaction was monitored at 340 nm prior to and after addition of the inhibitor to detect background reaction with the inhibitor. Solutions of 100 μl of the inhibitors in DMSO were prepared to provide a final DMSO concentration of 5% of the total assay volume. These solutions were incubated for 5 minutes at 25° C. in a 990 μl of a solution containing 100 mM potassium phosphate, pH 7.5, 0.3 M ammonium sulfate, 1.0 mM ethylenediaminetetraacetic acid (EDTA), 3.8 μM B-Nicotinamide adenine dinucleotide phosphate (NADPH), 171 μM DL-glyceraldehyde and 0.1 mM DL-dithiothreitol. The reaction was then initiated with 10 μl of Human Aldose Reductase (1:5 dilution of 0.55 mg/ml). After the enzyme was added, the solution was mixed for 20 seconds, and the reaction was run for 10 minutes. After a 50 second lag, the samples were read in a Cary spectrophotometer at 340 nm. Reading of the samples was continued until 300 seconds. The final DMSO concentration in the cuvette was 5%. […]
# [3] = molecular target: T2, lactate dehydrogenase (LDH) (Oryctolagus cuniculus, UniProt P13491); assay: LDH kinetic assay, spectrophotometric oxidation of NADH at 340 nm; type: biochemical, Rabbit Muscle
# T2 construct: 10 μl of LDH from Rabbit Muscle; from tissue; host or cells: rabbit muscle
# Description: For LDH analysis, the compounds were screened using a kinetic protocol that spectrophotometrically evaluates oxidation of NADH.
# as §1
# The LDH reaction was monitored at 340 nm prior to and after addition of the inhibitor to detect background reaction with the inhibitor. Solutions of 100 μl of the inhibitors in DMSO were prepared to provide a final DMSO concentration of 5% of the total assay volume. These solutions were incubated for 6 minutes at 25° C. in a 990 μl of a solution containing 0.1 M HEPES, pH 7.4, 10 μM NADH, and 2.5 mM of pyruvate. The reaction was then initiated with 10 μl of LDH from Rabbit Muscle (0.5 μg/ml; 1:2000 dilution of 1.0 mg/ml). After the enzyme was added, the solution was mixed for 20 seconds, and the reaction was run for 10 minutes. After a 50 second lag, the samples were read in a Cary spectrophotometer at 340 nm. Reading of the samples was continued until 300 seconds. Cuvette #1 contained the control reaction (no inhibitor), and cuvette #2 contained the positive control reaction in which Cibacron Blue at 10.3 μM was substituted for inhibitor to yield 50 to 70% inhibition. The substrate was kept at a level at least 10 times the Km.
Compound,IC50 [1],IC50 [2],IC50 [3]
"O=C(O)c1ccc(-c2ccc(-c3nc4ccccc4[nH]3)o2)cc1 [compound 6b, 4-[5-(1H-benzoimidazol-2-yl)-furan-2-yl] benzoic acid]",22 µM,35 µM,–
"O=C(O)c1ccc(-c2ccc(-c3nc4cc([N+](=O)[O-])ccc4[nH]3)o2)cc1 [compound 6d, 4-[5-(5-nitro-1H-benzoimidazol-2-yl)-furan-2-yl]-benzoic acid]",–,–,4.56 µM

# From patent publication US20030104473A1, “Common ligand mimics: benzimidazoles” (priority 2001, published 2003)
